This note sets out measurements from patent publication US10961200B2, “Small molecule inhibitors of lactate dehydrogenase and methods of use thereof” (THE UNITED STATES OF AMERICA, AS REPRESENTED BY THE …, priority 2014, dated 2021).

Structures are written as SMILES.

The target of the first assay is Human LDHA (Homo sapiens (Human), UniProt P00338). Put plainly: human LDHA primary biochemical assay (resazurin/diaphorase coupled, fluorescence). As to conditions: LDHA inhibitory activity, assay of Example 1; activity level classes. From the text:
Test compounds were placed in a Greiner Bio-One (Monroe, N.C.) 1536-well black solid bottom assay plate. 200 millimolar (mM) Tris HCl, pH 7.4, 100 micromolar […] EDTA and 0.01% TWEEN-20™, final concentration, was used as the assay buffer. The LDHA reagent was 2 nanomolar (nM) Human LDHA (Meridian Life Science, Inc., Memphis, Tenn.), final concentration, in assay buffer.
On the technique in general: Alamar Blue is a resazurin reagent that responds to reducing activity.
Take `O=C(OCCN1CCOCC1)c1csc(-n2nc(-c3ccc(F)c(F)c3)cc2O)n1` [Compound 106, 2-morpholinoethyl 2-(3-(3,4-difluorophenyl)-5-hydroxy-1H-pyrazol-1-yl)thiazole-4-carboxylate]: the IC50 (usually the concentration needed to halve the response being measured) was greater than 57 µM.
Turning to `CN(C)C(=O)Oc1cc(-c2ccc(F)c(F)c2)nn1-c1nc(C(=O)Oc2ccc3c(c2)CCC3)cs1` [Compound 107, 2,3-dihydro-1H-inden-5-yl 2-(3-(3,4-difluorophenyl)-5-((dimethylcarbamoyl)oxy)-1H-pyrazol-1-yl)thiazole-4-carboxylate], the IC50 is greater than 57 µM.
On the same count and under the same terms, as for `O=C(Oc1ccc2c(c1)CCC2)c1csc(-n2nc(-c3ccc(F)c(F)c3)cc2O)n1` [Compound 108, 2,3-dihydro-1H-inden-5-yl 2-(3-(3,4-difluorophenyl)-5-hydroxy-1H-pyrazol-1-yl)thiazole-4-carboxylate], the figure is greater than 57 µM.
Still for that read-out and setting: as for `CC(C)C(=O)OCOC(=O)c1csc(-n2nc(-c3ccc(F)c(F)c3)cc2O)n1` [Compound 109, (isobutyryloxy)methyl 2-(3-(3,4-difluorophenyl)-5-hydroxy-1H-pyrazol-1-yl)thiazole-4-carboxylate], the figure is greater than 57 µM.
Same read-out and setting: to `O=C(O)c1csc(-n2nc(-c3ccc(F)c(S(=O)(=O)NCc4ccccc4)c3)cc2O)n1` [Compound 110, 2-(3-(3-(N-benzylsulfamoyl)-4-fluorophenyl)-5-hydroxy-1H-pyrazol-1-yl)thiazole-4-carboxylic acid] belongs greater than 57 µM; to `O=C(O)c1csc(-n2nc(-c3ccc(NS(=O)(=O)C4CC4)c(F)c3)cc2O)n1` [Compound 111, 2-(3-(4-(cyclopropanesulfonamido)-3-fluorophenyl)-5-hydroxy-1H-pyrazol-1-yl)thiazole-4-carboxylic acid], greater than 57 µM; to `O=C(O)c1csc(-n2nc(-c3ccc(CCNS(=O)(=O)C4CC4)c(F)c3)cc2O)n1` [Compound 112, 2-(3-(4-(2-(cyclopropanesulfonamido)ethyl)-3-fluorophenyl)-5-hydroxy-1H-pyrazol-1-yl)thiazole-4-carboxylic acid], greater than 57 µM.
The molecule `O=C(O)c1csc(-n2nc(-c3ccc(F)c(F)c3)c(Cc3ccccc3)c2O)n1` [Compound 113, 2-(4-benzyl-3-(3,4-difluorophenyl)-5-hydroxy-1H-pyrazol-1-yl)thiazole-4-carboxylic acid] had an IC50 greater than 57 µM.
The molecule `CNS(=O)(=O)c1cc(-c2cc(O)n(-c3nc(C(=O)O)cs3)n2)ccc1F` [Compound 114, 2-(3-(4-fluoro-3-(N-methylsulfamoyl)phenyl)-5-hydroxy-1H-pyrazol-1-yl)thiazole-4-carboxylic acid] showed an IC50 greater than 57 µM.
`COC(=O)c1csc2c1c(=O)[nH]c1cc(-c3ccc(F)c(F)c3)nn12` [Compound 115, methyl 2-(3,4-difluorophenyl)-5-oxo-4,5-dihydropyrazolo[1,5-a]thieno[3,2-e]pyrimidine-6-carboxylate] gave an IC50 greater than 57 µM.
The molecule `O=C(O)c1csc2c1c(=O)[nH]c1cc(-c3ccc(F)c(F)c3)nn12` [Compound 116, 2-(3,4-difluorophenyl)-5-oxo-4,5-dihydropyrazolo[1,5-a]thieno[3,2-e]pyrimidine-6-carboxylic acid] returned an IC50 greater than 57 µM.
On the same count and under the same terms, as for `CC(C)(C)OC(=O)c1csc(-n2nc(-c3ccc(F)c(F)c3)c(Cc3cccc(S(N)(=O)=O)c3)c2O)n1` [Compound 117, tert-butyl 2-(3-(3,4-difluorophenyl)-5-hydroxy-4-(3-sulfamoylbenzyl)-1H-pyrazol-1-yl)thiazole-4-carboxylate], the figure is greater than 57 µM; as for `CC(C)(C)OC(=O)c1csc(-n2nc(-c3ccc(F)c(F)c3)c(-c3ccccc3)c2O)n1` [Compound 118, tert-butyl 2-(3-(3,4-difluorophenyl)-5-hydroxy-4-phenyl-1H-pyrazol-1-yl)thiazole-4-carboxylate], greater than 57 µM.
On the same count and under the same terms, as for `O=C(O)c1csc(-n2nc(-c3ccc(F)c(F)c3)c3cccc(O)c32)n1` [Compound 119, 2-(3-(3,4-difluorophenyl)-7-hydroxy-1H-indazol-1-yl)thiazole-4-carboxylic acid], the figure is greater than 57 µM; as for `CCOC(=O)c1csc(-n2nc(-c3ccc(F)c(F)c3)cc2O)n1` [Compound 121, ethyl 2-(3-(3,4-difluorophenyl)-5-hydroxy-1H-pyrazol-1-yl)thiazole-4-carboxylate], greater than 57 µM.
`CS(=O)(=O)NCCc1cc(-c2cc(O)n(-c3nc(C(=O)O)cs3)n2)ccc1F` [Compound 122, 2-(3-(4-fluoro-3-(2-(methylsulfonamido)ethyl)phenyl)-5-hydroxy-1H-pyrazol-1-yl)thiazole-4-carboxylic acid] displayed an IC50 greater than 57 µM.
Molecule `CNS(=O)(=O)c1ccc(Cc2c(-c3cccc(-c4ccccc4)c3)nn(-c3nc(C(=O)O)cs3)c2O)cc1` [Compound 124, 2-(3-([1,1′-biphenyl]-3-yl)-5-hydroxy-4-(4-(N-methylsulfamoyl)benzyl)-1H-pyrazol-1-yl)thiazole-4-carboxylic acid] gave an IC50 greater than 57 µM.
Turning to `O=C(O)c1csc(-n2cc(-c3ccc(F)c(F)c3)c3cccc(O)c32)n1` [Compound 125, 2-(3-(3,4-difluorophenyl)-7-hydroxy-1H-indol-1-yl)thiazole-4-carboxylic acid], the IC50 was greater than 57 µM.
The molecule `CC(=O)Nc1c(-c2ccccc2)nn(-c2nc(C(=O)O)cs2)c1O` [Compound 126, 2-(4-acetamido-5-hydroxy-3-phenyl-1H-pyrazol-1-yl)thiazole-4-carboxylic acid] came in with an IC50 greater than 57 µM.
Molecule `NC(=O)c1csc(-n2nc(-c3ccccc3)c(Cc3ccc(S(N)(=O)=O)cc3)c2C(F)(F)F)n1` [Compound 127, 2-(3-phenyl-4-(4-sulfamoylbenzyl)-5-(trifluoromethyl)-1H-pyrazol-1-yl)thiazole-4-carboxamide] returned an IC50 greater than 57 µM.
As to `Nc1c(Cc2ccc(S(N)(=O)=O)cc2)c(-c2ccccc2)nn1-c1ccc(=O)[nH]n1` [Compound 128, 4-((5-amino-1-(6-oxo-1,6-dihydropyridazin-3-yl)-3-phenyl-1H-pyrazol-4-yl)methyl)benzenesulfonamide], the IC50 is greater than 57 µM.
The molecule `CCOC(=O)c1cccc(-n2nc(-c3ccccc3)c(Cc3ccc(S(N)(=O)=O)cc3)c2N)c1` [Compound 129, ethyl 3-(5-amino-3-phenyl-4-(4-sulfamoylbenzyl)-1H-pyrazol-1-yl)benzoate] had a half-inhibitory concentration (IC50) greater than 57 µM.
The molecule `Nc1c(Cc2ccc(S(N)(=O)=O)cc2)c(-c2ccccc2)nn1-c1cccc(C(=O)O)c1` [Compound 130, 3-(5-amino-3-phenyl-4-(4-sulfamoylbenzyl)-1H-pyrazol-1-yl)benzoic acid] had an IC50 greater than 57 µM.
`Nc1c(Cc2ccc(S(N)(=O)=O)cc2)c(-c2ccccc2)nn1-c1nc(CO)cs1` [Compound 131, 4-((5-amino-1-(4-(hydroxymethyl)thiazol-2-yl)-3-phenyl-1H-pyrazol-4-yl)methyl)benzenesulfonamide] displayed an IC50 greater than 57 µM.
`NS(=O)(=O)c1ccc(Cc2c(-c3ccccc3)nn(-c3nc(CO)cs3)c2Cc2nnn[nH]2)cc1` [Compound 132, 4-((5-((1H-tetrazol-5-yl)methyl)-1-(4-(hydroxymethyl)thiazol-2-yl)-3-phenyl-1H-pyrazol-4-yl)methyl)benzenesulfonamide] returned an IC50 greater than 57 µM.
Molecule `COC(=O)c1csc(-n2nc(-c3ccccc3)c(Cc3ccc(S(N)(=O)=O)cc3)c2Cc2nnn[nH]2)n1` [Compound 133] came in with an IC50 greater than 57 µM.
Same read-out and setting: as for `CCOC(=O)c1csc(-n2nc(-c3ccccc3)c(Cc3ccc(S(N)(=O)=O)cc3)c2Cc2nnn[nH]2)n1` [Compound 134, ethyl 2-(5-((1H-tetrazol-5-yl)methyl)-3-phenyl-4-(4-sulfamoylbenzyl)-1H-pyrazol-1-yl)thiazole-4-carboxylate], the figure is greater than 57 µM; as for `CCOC(=O)c1csc(-n2nc(-c3ccccc3)c(Cc3ccc(S(N)(=O)=O)cc3)c2CC#N)n1` [Compound 135, ethyl 2-(5-(cyanomethyl)-3-phenyl-4-(4-sulfamoylbenzyl)-1H-pyrazol-1-yl)thiazole-4-carboxylate], greater than 57 µM; as for `Nc1c(Cc2ccc(S(N)(=O)=O)cc2)c(-c2ccccc2)nn1-c1nc(C(F)(F)F)cs1` [Compound 137, 4-((5-amino-3-phenyl-1-(4-(trifluoromethyl)thiazol-2-yl)-1H-pyrazol-4-yl)methyl)benzenesulfonamide], greater than 57 µM.
`O=C(O)c1csc(-n2cc(CNS(=O)(=O)N3CCNCC3)c(-c3ccccc3)n2)n1` [Compound 138, 2-(3-phenyl-4-((piperazine-1-sulfonamido)methyl)-1H-pyrazol-1-yl)thiazole-4-carboxylic acid] came in with an IC50 greater than 57 µM.
Regarding `NS(=O)(=O)c1ccc(NCc2cn(-c3nc(C(=O)O)cs3)nc2-c2ccccc2)cc1` [Compound 139, 2-(3-phenyl-4-(((4-sulfamoylphenyl)amino)methyl)-1H-pyrazol-1-yl)thiazole-4-carboxylic acid], the IC50 is greater than 57 µM.
For `CCOC(=O)c1ccc(-n2nc(-c3ccccc3)c(Cc3ccc(S(N)(=O)=O)cc3)c2N)nn1` [Compound 140, ethyl 6-(5-amino-3-phenyl-4-(4-sulfamoylbenzyl)-1H-pyrazol-1-yl)pyridazine-3-carboxylate], the IC50 was greater than 57 µM.
In turn, `NS(=O)(=O)c1ccc(CNc2cn(-c3nc(C(=O)O)cs3)nc2-c2ccccc2)cc1` [Compound 142, 2-(3-phenyl-4-((4-sulfamoylbenzyl)amino)-1H-pyrazol-1-yl)thiazole-4-carboxylic acid] displayed an IC50 greater than 57 µM.

Still in this assay, the particulars now being: read-out: Inhibitory activity IC50.
`CCOC(=O)c1csc(-n2nc(-c3ccc(F)c(F)c3)c(Cc3ccc(S(N)(=O)=O)cc3)c2N)n1` [Compound 123, ethyl 2-(5-amino-3-(3,4-difluorophenyl)-4-(4-sulfamoylbenzyl)-1H-pyrazol-1-yl)thiazole-4-carboxylate]: the half-inhibitory concentration (IC50) lay within 1 to 57 µM.
